Results published in US20220133702A1, “CYSTIC FIBROSIS TRANSMEMBRANE CONDUCTANCE REGULATOR MODULATORS FOR TREATING AUTOSOMAL DOMINANT POLYCYSTIC KIDNEY DISEASE” (The Johns Hopkins University, priority 2020, published 2022).

What was measured:
[1] = tested on: PC2 in the primary cilium; experiment: Confocal microscopy of PC2 in cilia of kidney sections; format: in vivo, mouse; settings: doxycycline plus VX-809 vs doxycycline plus DMSO
Description: (§1) To determine the location of PC2 in the cilia, confocal microscopy experiments using the Pkd1^fl/fl; Pax8^rtTA TetO-cre mouse model were conducted. These mice, when injected intraperitoneally (IP) with doxycycline on postnatal days (PND) 11, 12, and 13, developed multiple large cysts and large polycystic kidneys at approximately 3 weeks of age.
Mice were treated without doxycycline (NoDoxy), with doxycycline plus DMSO (Doxy), or with doxycycline plus VX809 (Doxy VX809), as indicated. PC2 staining is shown in red, acetylated (ac) αtubulin is shown in green, regions of colocalization of PC2 and ac-atubulin are shown in yellow. Scale bar is 10 μm. All pictures were taken with a 63× objective.
FIG. 21 is a graph of the percentage of cells with ciliary staining. Mice were treated without doxycycline (NoDoxy), with doxycycline plus DMSO (Doxy), or with doxycycline plus VX809 (Doxy VX809), as indicated, and kidney cells were analyzed. Pearson's coefficient was measured using at least 10 cells per image. Three animals were analyzed for each maneuver.
In normal mice PC2 is located in the primary cilium.

[2] = tested on: kidneys of Pkd1^fl/fl; Pax8^rtTA; TetO-cre mice; experiment: Ki67 staining of kidney sections (proliferation); format: in vivo, mouse; settings: 30 mg/kg, vs DMSO-treated mice
Source text: FIG. 3A, FIG. 3B, FIG. 3C, and FIG. 3D show cell proliferation is reduced by VX-809. (FIG. 3A-FIG. 3B) Proliferation in kidneys of Pkd1^fl/fl; Pax8^rtTA; TetO-cre mice. Representative images of Ki67 (a cellular marker for proliferation) staining of PN21 kidney sections from DMSO- and VX-809-treated mice. Arrows indicate Ki67-positive cells. Pictures were acquired with a Zeiss microscope equipped with 20× objective. (FIG. 3C) Summary data for Ki67-positive cells. Columns represent averages±standard errors of DMSO (vehicle)-treated (n=3) and VX-809-treated (n=3) mice. Statistical analysis was performed using a two-tailed Student's t test. (FIG. 3D) Proliferation in PN cells. PN cells were treated with VX-809 or DMSO). The bromodeoxyuridine (BrdU) concentration in the cells was measured by using a BrdU cell proliferation assay kit (Millipore Sigma#2750) according to the manufacturer's protocol. Columns represent averages±SEs of the OD of BrdU at 450/550 […]. Data were analyzed using Student's t-test, with n=5-7. Methods were described previously (62). *P>0.05; **P<0.01;
A hallmark of the cysts in ADPKD is an increase in proliferation in response to cAMP. Therefore, it was determined whether VX-809 would affect proliferation.

NHE3 in PN cells [3] = experiment: NHE3 activity; format: cell-based, mouse; settings: treated PN cells vs PN cells
Description: FIG. 15A and FIG. 15B show NHE3 activity in PN and PH cells (FIG. 15A and FIG. 15B) and NHE3 activity in PN cells treated with VX-809.
FIG. 16A, FIG. 16B, and FIG. 16C show NHE activity in PN/PH cells or PN cells treated with VX-809;
(§2) The expression and activity of […] were evaluated. Specifically, NHE3 expression was evaluated in PN cells that were treated with VX-809. […] was also studied in PN, PH, and PN cells treated with VX-809. […] Next, NHE3 activity was evaluated in PN/PH cells or PN cells treated with VX-809. NHE3 activity was increased in PN cells treated with VX-809, as compared to PN cells (FIG. 16A). NHE3 activity was higher in control PH cells than in PN cells (FIG. 16B). […] NHE3 activity was increased in both VX-809 treated PN cells and control PH cells, as compared to control PN cells (FIG. 16C).

PC2 in PN cells = experiment: Western blot of endogenous PC2; format: cell-based, mouse
Description: FIG. 6A and FIG. 6B show PC2 expression is unchanged by VX-809. (FIG. 6A) Western blot showing expression of PC2 in treated or control cells. (FIG. 6B) Columns represent the means±SEM of the PC2 expression. The data were analyzed by non-parametric t-test. The experiment was repeated six (control) or seven times;
PC2 is a 968-amino acid protein with an approximate molecular weight of 100 kDa in its monomeric form To determine whether VX-809 affects PC2 protein expression, western blot experiments were conducted on PN cells to determine the resting levels of endogenous PC2. The results indicated (FIG. 6) that VX-809 has no effect on PC2 expression.

NHE3 in PN cells [4] = experiment: NHE3 expression; format: cell-based, mouse; settings: treated PN cells vs PN cells
Description: FIG. 14A and FIG. 14B show NHE3 expression in PN cells treated with VX-809.
as §2

[5] = tested on: Pkd1^fl/fl; Pax8^rtTA; TetO-cre mice; experiment: Cyst growth and renal function in doxycycline-induced Pkd1 knockout mice; format: in vivo, mouse
Description: (FIG. 1A) Representative images of postnatal day (PND) 21 kidney sections from DMSO- and VX-809-treated mice. Significant reductions occurred in (FIG. 1B) cyst index, (FIG. 1C) kidney weight, and (FIG. 1D) kidney-to-body weight ratio. […] Methods: The total kidney area and total cystic area were measured with ImageJ (provided by NIH). Cystic index=100 X (total cystic area/total kidney area) and is expressed as a percentage. Columns represent means±standard error (SEM) for DMSO (vehicle)-treated (n=4-5) and VX-809 mice. *P<0.05; **P<0.01 (for all graphs). Statistical analysis was performed using an unpaired two-tailed Student's t-test;
When treated with doxycycline, these mice express Cre, causing knockout of PC1. […] Kidney weight (FIG. 1C) and kidney-to-body weight ratios (FIG. 1D) were also lower than those of the control mice. There was no difference in overall body weight (FIG. 1E) between the treated and untreated groups. […] The dosage of VX-809 injected was lower than the human pediatric dose, which is 500 mg of Lumacaftor per day; the adult dose is 800 mg/day.
Mouse strain and treatment. Pkd1^fl/fl; Pax8^rtTA; TetO-cre mice on a C57BL/6 background (61) were provided by the Baltimore PKD Center. Mice of both sexes were used in this study. Mice were injected IP with doxycycline (Sigma, #D9891) (4 μg of doxycycline/g body weight) on postnatal day 11 (PND11), PND12, and PND13 to produce very rapid and aggressive cyst growth. On PND21, the mice were euthanized.
as §1

[6] = 30 mg/kg IP daily PND10 to PND20, vs DMSO-treated mice
[7] = 30 mg/kg IP daily PND10 to PND20, vs control mice
[8] = injected daily PND10 to PND20, vs DMSO-treated mice

Which results are given for `Cc1ccc(NC(=O)C2(c3ccc4c(c3)OC(F)(F)O4)CC2)nc1-c1cccc(C(=O)O)c1` [VX-809, lumacaftor]?
PC2 in the cilium [1]: restores PC2 to the cilium; colocalization of PC2 with the cilia marker ac-αtubulin [1]: increases colocalization; cell proliferation (Ki67-positive cells) [2]: significantly inhibit cell proliferation; NHE3 activity (NHE3 in PN cells [3]): significantly increased; PC2 expression (PC2 in PN cells): no effect; NHE3 expression (NHE3 in PN cells [4]): significantly increased; overall body weight ([5]; 30 mg/kg IP daily PND10 to PND20, treated vs untreated): no difference; blood urea nitrogen (BUN) [5, 6]: lowered; creatinine [5, 6]: lowered; cyst growth (cyst index) [5, 6]: −60.4%; Kidney weight [5, 7]: lower; kidney-to-body weight ratios [5, 7]: lower; cyst growth (in words) [5, 8]: significantly less cyst growth; renal function [5, 8]: improved renal function
